Measured values taken from PubChem BioAssay AID328 (DTP/NCI, 2004).
Where “and” joins values, the source holds several entries; their conditions need not be identical. Identical values can stand only once. Toxic doses and inconclusive results are not listed.

Test system: BDF1 mice, P388 leukemia ip, median survival T/C
Assay: NCI In Vivo Anticancer Drug Screen. Data for tumor model P388 Leukemia (intraperitoneal) in B6D2F1 (BDF1) mice
Conditions: endpoint: median survival time, higher = longer survival
Procedure, shortened: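 Each value expresses how treatment altered survival: treated-mouse outcome over vehicle-mouse outcome, both groups bearing the transplanted tumour.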

[1] = dose: 100.0 mg/kg/injection, schedule: Q01DX009 (ip), vehicle: saline with Tween-80
[2] = dose: 12.5 mg/kg/injection, schedule: Q01DX009 (ip), vehicle: water
[3] = dose: 25.0 mg/kg/injection, schedule: Q01DX009 (ip), vehicle: water

In the case of `O=C(Nc1cccc(S(=O)(=O)F)c1)c1ccc(COc2ccc([N+](=O)[O-])cc2Cl)cc1`, the T/C [1] is reported as 91 % of control and the T/C (dose: 200.0 mg/kg/injection, schedule: Q01DX009 (ip), vehicle: saline with Tween-80) is reported as 91 % of control.

`ClCC[N-]CC[N-]CCCl.ClCC[N-]CC[N-]CCCl.[O-][Cl+3]([O-])([O-])O.[Zn+2]` was tested, and the T/C (dose: 2.5 mg/kg/injection, schedule: Q04DX003 (ip), vehicle: Klucel (hydroxypropylcellulose) (HPC)) was 105 % of control, the T/C (dose: 5.0 mg/kg/injection, schedule: Q03DX003 (ip), vehicle: saline) was 110 % of control and the T/C (dose: 5.0 mg/kg/injection, schedule: Q04DX003 (ip), vehicle: Klucel (hydroxypropylcellulose) (HPC)) was 112 % of control. For the same compound, the T/C (dose: 10.0 mg/kg/injection, schedule: Q04DX003 (ip), vehicle: Klucel (hydroxypropylcellulose) (HPC)) was 108 % of control, the T/C (dose: 20.0 mg/kg/injection, schedule: Q04DX003 (ip), vehicle: Klucel (hydroxypropylcellulose) (HPC)) was 124 % of control and the T/C (dose: 40.0 mg/kg/injection, schedule: Q03DX003 (ip), vehicle: saline) was 75 % of control. For the same compound, the T/C (dose: 40.0 mg/kg/injection, schedule: Q04DX003 (ip), vehicle: Klucel (hydroxypropylcellulose) (HPC)) was 154 % of control and the T/C (dose: 80.0 mg/kg/injection, schedule: Q03DX003 (ip), vehicle: saline) was 33 % of control.

`C=CC(=O)[O][Pb]([CH3])([CH3])[CH3]` was tested, and the T/C (dose: 0.75 mg/kg/injection, schedule: Q01DX009 (ip), vehicle: saline) was 98 % of control and the T/C (dose: 1.5 mg/kg/injection, schedule: Q01DX009 (ip), vehicle: saline) was 96 % of control.

`CC[N+](CC)(CC)CCCC[N+](CC)(CC)CC` was tested, and the T/C [2] was 97 % of control, the T/C [3] was 95 % of control and the T/C (dose: 25.0 mg/kg/injection, schedule: Q04DX003 (ip), vehicle: water) was 109 % of control. The T/C (dose: 50.0 mg/kg/injection, schedule: Q01DX009 (ip), vehicle: water) was 100 % of control and the T/C (dose: 50.0 mg/kg/injection, schedule: Q04DX003 (ip), vehicle: water) was 104 % of control.

With `CCOC(=O)c1ccc(=O)n(C(C)C)c1` the T/C (dose: 100.0 mg/kg/injection, schedule: Q04DX003 (ip), vehicle: Klucel (hydroxypropylcellulose) (HPC)) was 90 % of control, the T/C (dose: 200.0 mg/kg/injection, schedule: Q04DX003 (ip), vehicle: Klucel (hydroxypropylcellulose) (HPC)) was 90 % of control and the T/C (dose: 400.0 mg/kg/injection, schedule: Q04DX003 (ip), vehicle: Klucel (hydroxypropylcellulose) (HPC)) was 100 % of control.

For `CN/N=C/c1cccnc1`, the T/C (dose: 12.5 mg/kg/injection, schedule: Q01DX009 (ip), vehicle: saline) was 97 % of control, the T/C (dose: 25.0 mg/kg/injection, schedule: Q01DX009 (ip), vehicle: saline) was 95 % of control and the T/C (dose: 50.0 mg/kg/injection, schedule: Q01DX009 (ip), vehicle: saline with Tween-80) was 105 % of control. For the same compound, the T/C (dose: 50.0 mg/kg/injection, schedule: Q01DX009 (ip), vehicle: saline) was 95 % of control.

With `COCC(O)Cn1ccnc1[N+](=O)[O-]` (stereo not given) the T/C (dose: 540.0 mg/kg/injection, schedule: Q01DX001 (ip), vehicle: saline) was 104 % of control, the T/C (dose: 600.0 mg/kg/injection, schedule: Q01DX001 (ip), vehicle: saline) was 92 % of control and 101 % of control and the T/C (dose: 900.0 mg/kg/injection, schedule: Q01DX001 (ip), vehicle: saline) was 107 % of control. The T/C (dose: 1000.0 mg/kg/injection, schedule: Q01DX001 (ip), vehicle: saline) was 99 % of control and the T/C (dose: 1500.0 mg/kg/injection, schedule: Q01DX001 (ip), vehicle: saline) was 104 % of control.

For `Cn1cnc([N+](=O)[O-])c1Sc1ncnc2nc[nH]c12`, the T/C (dose: 44.0 mg/kg/injection, schedule: Q04DX003 (ip), vehicle: saline sonified) was 110 % of control, the T/C (dose: 66.0 mg/kg/injection, schedule: Q04DX003 (ip), vehicle: saline sonified) was 120 % of control and the T/C (dose: 150.0 mg/kg/injection, schedule: Q04DX003 (ip), vehicle: saline sonified) was 175 % of control. For the same compound, the T/C (dose: 200.0 mg/kg/injection, schedule: Q01DX009 (ip), vehicle: saline) was 86 % of control and the T/C (dose: 400.0 mg/kg/injection, schedule: Q04DX003 (ip), vehicle: saline sonified) was 109 % of control.

In the case of `CC(=O)OCC(=O)[C@@]1(O)CC[C@H]2[C@@H]3C[C@H](F)C4=CC(=O)CC[C@]4(C)[C@H]3C(=O)C[C@@]21C`, the T/C (dose: 100.0 mg/kg/injection, schedule: Q01DX009 (ip), vehicle: other) is reported as 100 % of control.

For `CC(=O)Nc1ccc(S(=O)(=O)NC(N)=O)cc1`, the T/C [1] was 105 % of control and the T/C (dose: 400.0 mg/kg/injection, schedule: Q01DX009 (ip), vehicle: saline with Tween-80) was 98 % of control.

With `C=CC(c1ccccc1)C(O)(Cc1ccccc1)Cc1ccccc1` (stereo not given) the T/C (dose: 12.5 mg/kg/injection, schedule: Q01DX009 (ip), vehicle: DMSO) was 116 % of control and the T/C (dose: 50.0 mg/kg/injection, schedule: Q01DX009 (ip), vehicle: DMSO) was 100 % of control.

With `CCOC(=O)c1ccc(NC(N)=O)cc1` the T/C (dose: 25.0 mg/kg/injection, schedule: Q04DX003 (ip), vehicle: saline with Tween-80) was 100 % of control, the T/C (dose: 50.0 mg/kg/injection, schedule: Q04DX003 (ip), vehicle: saline with Tween-80) was 102 % of control and the T/C (dose: 100.0 mg/kg/injection, schedule: Q04DX003 (ip), vehicle: saline with Tween-80) was 99 % of control.

`C[n+]1c(-c2cc(N)cc(C(F)(F)F)c2)c2cc(N)ccc2c2ccc(N)cc21` was tested, and the T/C (dose: 6.25 mg/kg/injection, schedule: Q01DX009 (ip), vehicle: water) was 150 % of control, the T/C [2] was 181 % of control and the T/C [3] was 95 % of control.
